The text below walks through data of US5468772A, “Tripterinin compound and method” (Pharmagenesis, Inc., priority 1993, dated 1995).

The subject of assay [1] is HIV. As to conditions: cited from earlier work.
In assay [2] the test system is human peripheral blood lymphocytes. Description: Suppression of human PBL proliferation in vitro ([3H]thymidine incorporation), with or without anti-CD3 (X-35). The class given is cell-based. As to the method: One measure of immunosuppression is suppression of stimulated peripheral blood lymphocyte (PBL) proliferation in vitro. In the assay detailed in Example 3, PBLs were activated in vitro by addition of anti-CD3 monoclonal antibody (X-35 antibody). At the same time, purified tripterinin or vehicle (control) was added to each culture, at selected concentrations. After 72 hours incubation, tritiated thymidine was added to the culture medium, and thymidine incorporation into DNA was assayed, as a measure of DNA synthesis associated with cell proliferation.
The ability of tripterifordin to inhibit anti-CD3 stimulated PBL proliferation was assayed at concentrations of 0, 0.78, 3.13, and 12.5 μg/ml, with the results shown in FIG. 9.
Human peripheral blood lymphocytes were prepared using an established method (Boyum). Human blood buffy coat samples, approximately 25 ml/donor, were obtained from the Stanford University Medical Center Blood Bank. Using sterile technique, the buffy coat samples were gently resuspended in a total volume of 100 ml with the addition of calcium and magnesium free Hank's balanced salt solution (HBSS, obtained from Gibco) at room temperature. A volume of 25 ml of the cell suspension was then layered onto 15 ml of Ficoll-Pacque (Pharmacia LKB Biotechnology, Inc.) in a 50 ml conical centrifuge tube. Tubes were centrifuged in a Beckman GPR tabletop centrifuge (GH-3.7 Rotor) at 400×g for 30 minutes at 15° C.
Following centrifugation, the PBL suspensions at the interfaces were transferred to new 50 ml tubes using a transfer pipette, and the PBL samples were resuspended in a total volume of 45 ml HBSS and centrifuged at 354×g for 10 minutes at 15° C. Supernatants were discarded. PBL's were resuspended in 10 ml HBSS, combined to make a total of 45 ml HBSS, and centrifuged at 265×g for 10 minutes at 15° C. The cell pellets were suspended in 10 ml of X-Vivo tissue culture medium (Bio Whittaker) and counted using a hemocytometer. Tissue culture medium was then added to achieve a final cell concentration of 1× 10^6 cells/ml. Additional dilutions were carried out as required for each assay.
Assays were carried out in 96 well sterile tissue culture plates (Costar 3790 and Costar 3595). A volume of 150 μl of X-Vivo medium or sterile distilled water was added to the outer wells of the plate to prevent evaporation of medium within the experimental wells. PBL's from 2 different donors were used in parallel in all experiments. A volume of 100 μl PBL suspension was added to each well using a multichannel pipette. Plates were incubated in an atmosphere of 93% air/7% CO2 in a tissue culture incubator at 37° C. X-35 (AMAC #0178), an anti CD-3 surface antigen antibody, was used at 5 ng/ml to stimulate PBL proliferation.
Tripterinin or tripterifordin was dissolved in ethanol (10 mg/ml) and then diluted in sterile X-Vivo tissue culture medium to obtain the final concentrations required for each experiment.
Four hours prior to the conclusion of incubation, 50 μl of X-Vivo tissue culture medium containing 8 μCi/ml [^3 H]Thymidine (Amersham, 49 Ci/mmol) was added to each tissue culture well. After 72 hours total incubation time, the cells were removed from the tissue culture wells and applied to filter paper using a cell harvester (Brandel Model MB-24). The filter paper was dried for one hour under a heat lamp and then cut into 1 cm discs. Each sample was placed in a scintillation vial containing 2 ml of scintillation fluid (Biosafe, Research Products International Corp.). Samples were counted in a Beckman LS 6000SC scintillation counter.
(Uptake of a labelled nucleoside into DNA is a usual measure of proliferation.)

Assay [3] has as its system mouse thymocytes. Description: Inhibition of IL-1 action: IL-1 stimulated mouse thymocyte proliferation in presence of PHA. As to conditions: tripterifordin 3.13 μg/ml, about 3 μg/ml, tripterinin 0.02 to 1 μg/ml. In kind it is cell-based. Here is the method: The ability of tripterinin and tripterifordin to suppress the cell-proliferative effect of IL-1 in mouse thymocytes, an index of IL-1 action (O'Gara), was also examined. In this study, mouse thymocytes in culture were stimulated with IL-1 in the presence of phytohemagglutinin (PHA) and increasing concentrations of purified tripterinin or tripterifordin. The cells were cultured for 72 hours, and during the last four hours, incubated with tritiated thymidine. DNA synthesis was assessed by measurement of radiolabeled thymidine incorporation.
Mouse thymocytes were prepared, and the action of IL-1, which stimulates thymocyte proliferation, was measured using standard techniques (O'Gara). Three to six week old C3H/HeN mice were obtained from Simonsen Laboratories, Gilroy, Calif. and sacrificed by CO2 inhalation. Thymi were removed, separated from adherent non-thymic tissue, homogenized in Hank's balanced salt solution (Gibco) using a glass homogenizer, and centrifuged at 180×g for 10 minutes at 15° C. Following an additional wash in HBSS, the thymocytes were resuspended in RPMI 1640 tissue culture medium (Gibco) containing 50 μM 2-mercaptoethanol (Fisher), 2 mM glutamine (Gibco), 1 mM sodium pyruvate, non-essential amino acids, penicillin (100 U/ml) streptomycin (100 μg/ml), 10% heat inactivated fetal bovine serum and Phytohemagglutinin (PHA, Pharmacia, final concentration 10 μg/ml). Cells were cultured in round-bottom 96 well microtiter tissue culture plates, 6×10^5 cells per well in a volume of 100 μl. Tripterinin or tripterifordin was diluted in tissue culture medium and added to the wells in the presence and absence of IL-1 (recombinant human IL-1, R&D Systems catalog #201-LB, 0.1 ng/ml). Total volume was 150 μl per well.
Plates were incubated for 72 hours (95% air/5% CO2, 37° C.). During the last four hours of incubation, [^3 H]-thymidine (Amersham, […]) was added (0.5 μCi per well). Cells were harvested onto Whatman 934-AH glass microfiber filters and counted in a Beckman LS 6000 scintillation counter. Results were expressed as counts per minute per well.

The test system of assay [4] is TNFα. As to conditions: RA patients, long term administration; cited from earlier work.
The test system of assay [5] is IL-1. As to conditions: RA patients, long term administration; cited from earlier work.

Consider `C[C@@]1(O)C[C@@]23CC[C@H]4[C@@]5(CCC[C@]4(C)C(=O)OC5)[C@@H]2CC[C@H]1C3` [tripterifordin, reference compound], for which, in assay [1], the anti-HIV activity result is reported as “anti-HIV principle”. The “inhibition of anti-CD3 stimulated PBL proliferation” value in assay [2] (highest concentration tested, 12.5 μg/ml, FIG. 9) is reported as “failed to significantly inhibit PBL proliferation”. In assay [2] (stimulated and unstimulated (tripterinin), FIG. 9 (tripterifordin)), the “inhibitory effect on PBL proliferation” value is “little or no inhibitory effect”. The entries for the “inhibition of IL-1 stimulated thymocyte proliferation” value in assay [3] and in assay [3] (listed as Tripterifordin) were “little or no inhibitory effect” and “failed to inhibit”, respectively.
In the case of `O=C(O)c1cc(/N=N/c2ccc(S(=O)(=O)Nc3ccccn3)cc2)ccc1O` [sulfasalazine], the “serum level of TNFα” value in assay [4] is given as “decline”. For the same compound, the “serum level of IL-1” value in assay [5] is “decline”.
